Experiment [1] has as its system human UCN II promoter. Kind of experiment: Dexamethasone induced expression from UCN II promoter fragments in CHO-K1 cultures. In kind it is cell-based, hamster. To be noted: 20 μM dexamethasone, 22 h. The text has this: (§1) The above constructs containing the human UCN II promoter fragments placed upstream of the firefly luciferase gene can be used to transfect immortalized cell lines. The constructs can be transfected into CHO-K1 cell lines using Lipofectamine 2000 (Invitrogen Life Technologies). Primary cultures of the central nervous system, as well as additional immortalized cell lines, are also appropriate for these transfections. To control for transfection efficiency, the cells can also be co-transfected with the pRL-TK vector (Promega). The pRL-TK vector contains the Renilla luciferase gene downstream of the herpes simplex virus thymidine kinase promoter, a promoter which provides low to moderate levels of expression. Cell lysates can be assayed for total protein using the BCA assay (Pierce, Rockford, Ill.) to standardize for the protein extraction. The level of reporter gene expression from a standardized amount of cell extract can be quantified by measuring luciferase activity using a luminometer (EG&G Wallac, Gaithersburg, Md.) and the dual-luciferase reporter assay system (Promega). Firefly luciferase activity reflects UCN II promoter activity and Renilla luciferase activity can be used to normalize data between experiments.
Using the methods described previously, CHO-K1 cultures were transiently transfected with the UCN II promoter constructs. […]

The subject of experiment [2] is human UCN II promoter. The experiment can be described thus: Dexamethasone induced expression from UCN II promoter fragments in CATH.a cultures. The experiment is classed as cell-based, mouse. As to conditions: 20 μM dexamethasone, 22 h.
Source text: as §1
In the following experiments, we confirmed the dexamethasone treatment results in the CATH.a cell line. Using the methods described previously, CATH.a cultures were transiently transfected with the UCN II promoter constructs. Immediately following transfection equal numbers of cultures (N=12 per group) were treated with either 20 μM dexamethasone or were given vehicle. Twenty-two hours following treatment, the cultures were harvested and assayed for luciferase activity (see FIG. 7).

The subject of experiment [3] is human UCN II promoter. The experiment can be described thus: CRF induced expression from UCN II promoter fragments in CATH.a cultures. The experiment is classed as cell-based. As to conditions: 1 μM CRF, 22 h.
Source text: as §1
Using the methods described previously, CATH.a cultures were transiently transfected with the UCN II promoter constructs. Immediately following transfection equal numbers of cultures (N=4 per group) were treated with either 1 μM CRF or with vehicle. Twenty-two hours following treatment, the cultures were harvested and assayed for luciferase activity (see FIG. 8). CATH.a cultures are known to express CRF receptors and both CRF and UCN II are known ligands for the receptors. […] The goal of the present experiment was to determine if CRF receptor-dependent second messenger system activation affected UCN II gene expression.

Where no end group is shown, it is not given here.

Regarding `C[C@@H]1C[C@H]2[C@@H]3CCC4=CC(=O)C=C[C@]4(C)[C@@]3(F)[C@@H](O)C[C@]2(C)[C@@]1(O)C(=O)CO` [dexamethasone], in the experiment with human UCN II promoter [1], the “decrease in expression compared to vehicle, −1426 construct” value was 15% and the “expression within the remaining constructs vs vehicle” value is “no significant effect”. In the experiment with human UCN II promoter [2], the “decrease in expression compared to vehicle, −1426 construct” value is 39%; the “decrease in expression compared to vehicle, −1987 construct” value turned out to be 29%; the “expression within the remaining constructs vs vehicle” value was “no effect”.
As to “corticotropin-releasing factor (SEEPPISLDLTFHLLREVLEMARAEQLAQQAHSNRKLMEII; ends and bridges not checked; UniProt P06850 154-194, looked up) [CRF, neurotransmitter peptide, ligand of CRF receptors]”, in the experiment on human UCN II promoter [3], the “expression within the remaining constructs vs vehicle” value is recorded as “no significant effect”; the “increase in expression over vehicle, −1426 construct” value amounted to 52%; the “increase in expression over vehicle, −1987 construct” value amounted to 29%. The “expression within the −1987 and −1426 constructs vs vehicle” value with human UCN II promoter [3] (P<0.05 for −1987, P<0.001 for −1426, preliminary data) was “significantly increased expression”.

(Values after US7087385B2, “Promoter sequences for urocortin II and the use thereof” (Wisconsin Alumni Research Foundation, priority 2002, dated 2006).)
